Assay results published in PubChem BioAssay (NCI).
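Five compound concentrations were applied to cells in 96-well plates for 48 hours; endpoints were derived by simple linear interpolation of the resulting dose-response curve. TGI: total growth inhibition.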

Key:
Experiment in all cases: NCI-60 cell line screen, 48 h
786-0 renal = system: 786-0 renal
A549 NSCLC = system: A549 NSCLC
BT-549 breast = system: BT-549 breast
CAKI-1 renal = system: CAKI-1 renal
CCRF-CEM leukemia = system: CCRF-CEM leukemia
COLO 205 colon = system: COLO 205 colon
EKVX NSCLC = system: EKVX NSCLC
HCC-2998 colon = system: HCC-2998 colon
HCT-15 colon = system: HCT-15 colon
HL-60(TB) leukemia = system: HL-60(TB) leukemia
HOP-62 NSCLC = system: HOP-62 NSCLC
HOP-92 NSCLC = system: HOP-92 NSCLC
HS 578T breast = system: HS 578T breast
HT29 colon = system: HT29 colon
IGROV1 ovarian = system: IGROV1 ovarian
K-562 leukemia = system: K-562 leukemia
KM12 colon = system: KM12 colon
M14 melanoma = system: M14 melanoma
MCF7 breast = system: MCF7 breast
MDA-MB-231 breast = system: MDA-MB-231 breast
MDA-N = system: MDA-N
MOLT-4 leukemia = system: MOLT-4 leukemia
NCI-H226 lung = system: NCI-H226 lung
NCI-H522 lung = system: NCI-H522 lung
NCI/ADR-RES ovarian = system: NCI/ADR-RES ovarian
OVCAR-3 ovarian = system: OVCAR-3 ovarian
OVCAR-8 ovarian = system: OVCAR-8 ovarian
PC-3 prostate = system: PC-3 prostate
RPMI-8226 leukemia = system: RPMI-8226 leukemia
RXF 393 renal = system: RXF 393 renal
SF-295 CNS = system: SF-295 CNS
SF-539 CNS = system: SF-539 CNS
SK-MEL-2 melanoma = system: SK-MEL-2 melanoma
SK-MEL-5 melanoma = system: SK-MEL-5 melanoma
SK-OV-3 ovarian = system: SK-OV-3 ovarian
SN12C renal = system: SN12C renal
SNB-19 CNS = system: SNB-19 CNS
SNB-75 CNS = system: SNB-75 CNS
SR leukemia = system: SR leukemia
SW-620 colon = system: SW-620 colon
T-47D breast = system: T-47D breast
U251 CNS = system: U251 CNS
UO-31 renal = system: UO-31 renal
A498 renal = system: A498 renal
ACHN renal = system: ACHN renal
DU-145 prostate = system: DU-145 prostate
HCT-116 colon = system: HCT-116 colon
LOX IMVI melanoma = system: LOX IMVI melanoma
MDA-MB-435 = system: MDA-MB-435
NCI-H23 lung = system: NCI-H23 lung
NCI-H460 lung = system: NCI-H460 lung
OVCAR-4 ovarian = system: OVCAR-4 ovarian
OVCAR-5 ovarian = system: OVCAR-5 ovarian
SF-268 CNS = system: SF-268 CNS
SK-MEL-28 melanoma = system: SK-MEL-28 melanoma
TK-10 renal = system: TK-10 renal
UACC-257 melanoma = system: UACC-257 melanoma
UACC-62 melanoma = system: UACC-62 melanoma

Measured: TGI

N#Cc1ccc(-c2nc3ccc(Cl)cc3[nH]2)cc1
not listed: A498 renal | ACHN renal | DU-145 prostate | HCT-116 colon | LOX IMVI melanoma | MDA-MB-435 | NCI-H23 lung | NCI-H460 lung | OVCAR-4 ovarian | OVCAR-5 ovarian | SF-268 CNS | SK-MEL-28 melanoma | TK-10 renal | UACC-257 melanoma | UACC-62 melanoma
> 100 µM: all other assays above

COc1cc(/C=C/C(=O)N[C@@H]2C(=O)N3[C@@H]2SC(C)(C)[C@@H]3C(=O)O)cc(OC)c1OC
not listed: HOP-62 NSCLC | IGROV1 ovarian | SR leukemia
> 100 µM: all other assays above
